Assay results as given in patent publication US6740671B2 (priority 2000, dated 2004).

Assay: Foliar penetration of C14-labeled ethaboxam into cucumber
Assay type: in vivo
Settings: cucumber foliage, 24 hours after spotting; result in words
Procedure: In order to investigate the relationship of the concentration of polyoxyalkylene alkyl ether and the foliar penetration of ethaboxam, foliar penetration experiment was carried out using radioisotope [C^14]-labeled ethaboxam as follows.
Cucumber seeds were sown in a horticultural bed soil of pots having a diameter of 6 cm and grown under glass for 3 weeks. 10 mg of the formulation prepared in the comparative example was diluted in 10 ml of tap water. 20 μl of the diluted solution was taken and thereto was added 1.0 μCi of ethaboxam labeled with C^14(81.7 μCi/mg) to prepare the diluted ethaboxam formulation labeled with C^14. […]
The plants were cut at a distance of 1 cm from the bottom of soil and the cuts were introduced into 250 ml Erlenmeyer flaska 50 ml of the mixed solution of acetonitrile and distilled water(volume ratio=1:4) was added thereto and then, the flask was plugged and shaken for 1 minute. Radioactivity of C^14-ethaboxam in the solution was measured with a liquid scintillation counter and the residue was combusted with a sample oxidizer to collect C^14-carbon dioxide, which was analyzed with the liquid scintillation counter.
Foliar penetration of ethaboxam is calculated by subtracting radioactivity in the solution from the total radioactivity, which is identical with radioactivity in the residue.

CCNc1nc(CC)c(C(=O)NC(C#N)c2cccs2)s1 (stereo not drawn) [ethaboxam, N-(α-cyano-2-thenyl)-4-ethyl-2-(ethylamino)-5-thiazolecarboxamide]
foliar penetration of ethaboxam: hardly penetrated into plants in the absence of adjuvant
